Measurements taken from patent publication US6410542B1, “Aminotetrazole derivatives useful as nitric oxide synthase inhibitors” (G. D. Searle & Co., priority 1994, dated 2002).
Where a name gives a salt, the structure may show the parent alone.

Assays:
[1] = Physical properties on exposure to moisture in room air; format: physicochemical; settings: normal room air
Source text: It is also an advantage in that the compounds of the present invention have preferred physical properties as compared to compounds known in the art. […] In contrast, NIL, which is disclosed in WO 93/13055 when the hydrochloride salt can be isolated as a colorless crystal, but has the property of deliquescence. The compound quickly becomes a very viscous sticky oil upon exposure to moisture in normal room air which makes it difficult to handle.

[2] = biological target: Human inducible NOS (hiNOS) (Homo sapiens, UniProt P35228); assay: Citrulline assay for nitric oxide synthase, hiNOS; format: biochemical
Chain of Human inducible NOS (hiNOS) (P35228 whole entry): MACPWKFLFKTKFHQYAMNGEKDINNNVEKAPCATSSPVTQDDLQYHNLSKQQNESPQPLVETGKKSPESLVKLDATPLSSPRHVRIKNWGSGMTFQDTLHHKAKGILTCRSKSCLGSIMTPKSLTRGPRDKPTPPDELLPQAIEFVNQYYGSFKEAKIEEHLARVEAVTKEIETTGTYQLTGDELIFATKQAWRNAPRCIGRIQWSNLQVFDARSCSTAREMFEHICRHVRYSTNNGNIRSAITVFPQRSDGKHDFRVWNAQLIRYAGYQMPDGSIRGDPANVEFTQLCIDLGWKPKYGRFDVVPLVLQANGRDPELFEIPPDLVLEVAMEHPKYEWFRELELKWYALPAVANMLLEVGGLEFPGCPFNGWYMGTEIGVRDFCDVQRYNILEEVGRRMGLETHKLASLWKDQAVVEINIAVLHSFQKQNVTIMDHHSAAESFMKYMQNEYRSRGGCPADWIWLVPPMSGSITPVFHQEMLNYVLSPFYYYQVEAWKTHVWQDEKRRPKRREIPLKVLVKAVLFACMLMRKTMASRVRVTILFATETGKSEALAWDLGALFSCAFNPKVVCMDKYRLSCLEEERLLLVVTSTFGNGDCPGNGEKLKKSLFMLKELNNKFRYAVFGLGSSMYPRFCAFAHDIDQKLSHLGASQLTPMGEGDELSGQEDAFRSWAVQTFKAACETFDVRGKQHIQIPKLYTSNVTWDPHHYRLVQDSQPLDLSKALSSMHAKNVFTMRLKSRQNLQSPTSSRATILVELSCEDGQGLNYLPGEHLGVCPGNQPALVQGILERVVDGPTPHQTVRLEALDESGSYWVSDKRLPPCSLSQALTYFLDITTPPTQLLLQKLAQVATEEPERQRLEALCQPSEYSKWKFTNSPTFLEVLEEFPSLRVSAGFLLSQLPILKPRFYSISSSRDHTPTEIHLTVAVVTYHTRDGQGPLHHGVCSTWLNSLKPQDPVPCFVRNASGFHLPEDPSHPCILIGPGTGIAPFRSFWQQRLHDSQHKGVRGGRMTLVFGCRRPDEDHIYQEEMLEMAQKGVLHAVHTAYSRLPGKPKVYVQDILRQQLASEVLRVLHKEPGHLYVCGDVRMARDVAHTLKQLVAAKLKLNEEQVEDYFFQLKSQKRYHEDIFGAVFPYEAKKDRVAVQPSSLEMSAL
Experimental: Citrulline Assay for Nitric Oxide Synthase Nitric oxide synthase activity was measured by monitoring the conversion of L-[2,3-3H]-arginine to L-[2,3-3H]-citrulline (1,2). […] For constitutive NOS, calmodulin was included at a final concentration of 40-100 nM. Following incubation at 37° C. for 15 minutes, the reaction was terminated by addition of 300 μL cold buffer containing 10 mM EGTA, 100 mM HEPES (pH5.5) and 1.0 mM L-citrulline. The [3H]-citrulline was separated by chromatography on Dowex 50W X-8 cation exchange resin and radioactivity quantified with a liquid scintillation counter.

CC(=N)NCCCC[C@H](N)C(=O)Nc1nnn[nH]1 [Example 1, 2S-amino-6-[(1-iminoethyl)amino]-N-(1H-tetrazol-5-yl) hexanamide, Hydrate, Dihydrochloride]
physical form / behaviour on exposure to moisture [1]: crystalline product
Selectivity ([2]; hiNOS over hecNOS): 113
selectivity compared with NIL ([2]; in words): more selective than NIL
IC50 ([2]; recombinant enzyme, L-arginine to L-citrulline conversion, 37° C., 15 minutes): 21.4 µM

CC(N)=NCCCC[C@@H](N)C(=O)O [NIL, reference compound]
physical form / behaviour on exposure to moisture [1]: deliquescence
